Results as given in patent publication US12065436B2, “Cardiac sarcomere inhibitors” (Cytokinetics, Inc., priority 2018, dated 2024).

Molecular target: bovine cardiac myofibrils (full-length cardiac myosin ATPase in the native sarcomere) (Bos taurus (Bovine), UniProt Q9BE39)
Experiment: Skinned bovine cardiac myofibril ATPase assay (PK/LDH-coupled)
Format: biochemical
Settings: Ca2+ activating to 75% of maximal rate; for CDMF75 IC15: concentration giving 15% inhibition; for IC50: read-out: CDMF75 IC50
Outline: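 Inhibition of steady-state ATPase read at 340 nm through a PK/LDH-coupled NADH system (0.5 mM NADH, 1.5 mM PEP). Detergent-skinned bovine cardiac myofibrils, 1 mg/mL, were tested at pH 6.8 in PIPES/MgCl2 with 50 μM ATP and calcium adjusted to give pCa50 or pCa75 activation.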

bovine cardiac myofibrils (full-length cardiac myosin ATPase in the native sarcomere), sequence (Q9BE39 whole entry): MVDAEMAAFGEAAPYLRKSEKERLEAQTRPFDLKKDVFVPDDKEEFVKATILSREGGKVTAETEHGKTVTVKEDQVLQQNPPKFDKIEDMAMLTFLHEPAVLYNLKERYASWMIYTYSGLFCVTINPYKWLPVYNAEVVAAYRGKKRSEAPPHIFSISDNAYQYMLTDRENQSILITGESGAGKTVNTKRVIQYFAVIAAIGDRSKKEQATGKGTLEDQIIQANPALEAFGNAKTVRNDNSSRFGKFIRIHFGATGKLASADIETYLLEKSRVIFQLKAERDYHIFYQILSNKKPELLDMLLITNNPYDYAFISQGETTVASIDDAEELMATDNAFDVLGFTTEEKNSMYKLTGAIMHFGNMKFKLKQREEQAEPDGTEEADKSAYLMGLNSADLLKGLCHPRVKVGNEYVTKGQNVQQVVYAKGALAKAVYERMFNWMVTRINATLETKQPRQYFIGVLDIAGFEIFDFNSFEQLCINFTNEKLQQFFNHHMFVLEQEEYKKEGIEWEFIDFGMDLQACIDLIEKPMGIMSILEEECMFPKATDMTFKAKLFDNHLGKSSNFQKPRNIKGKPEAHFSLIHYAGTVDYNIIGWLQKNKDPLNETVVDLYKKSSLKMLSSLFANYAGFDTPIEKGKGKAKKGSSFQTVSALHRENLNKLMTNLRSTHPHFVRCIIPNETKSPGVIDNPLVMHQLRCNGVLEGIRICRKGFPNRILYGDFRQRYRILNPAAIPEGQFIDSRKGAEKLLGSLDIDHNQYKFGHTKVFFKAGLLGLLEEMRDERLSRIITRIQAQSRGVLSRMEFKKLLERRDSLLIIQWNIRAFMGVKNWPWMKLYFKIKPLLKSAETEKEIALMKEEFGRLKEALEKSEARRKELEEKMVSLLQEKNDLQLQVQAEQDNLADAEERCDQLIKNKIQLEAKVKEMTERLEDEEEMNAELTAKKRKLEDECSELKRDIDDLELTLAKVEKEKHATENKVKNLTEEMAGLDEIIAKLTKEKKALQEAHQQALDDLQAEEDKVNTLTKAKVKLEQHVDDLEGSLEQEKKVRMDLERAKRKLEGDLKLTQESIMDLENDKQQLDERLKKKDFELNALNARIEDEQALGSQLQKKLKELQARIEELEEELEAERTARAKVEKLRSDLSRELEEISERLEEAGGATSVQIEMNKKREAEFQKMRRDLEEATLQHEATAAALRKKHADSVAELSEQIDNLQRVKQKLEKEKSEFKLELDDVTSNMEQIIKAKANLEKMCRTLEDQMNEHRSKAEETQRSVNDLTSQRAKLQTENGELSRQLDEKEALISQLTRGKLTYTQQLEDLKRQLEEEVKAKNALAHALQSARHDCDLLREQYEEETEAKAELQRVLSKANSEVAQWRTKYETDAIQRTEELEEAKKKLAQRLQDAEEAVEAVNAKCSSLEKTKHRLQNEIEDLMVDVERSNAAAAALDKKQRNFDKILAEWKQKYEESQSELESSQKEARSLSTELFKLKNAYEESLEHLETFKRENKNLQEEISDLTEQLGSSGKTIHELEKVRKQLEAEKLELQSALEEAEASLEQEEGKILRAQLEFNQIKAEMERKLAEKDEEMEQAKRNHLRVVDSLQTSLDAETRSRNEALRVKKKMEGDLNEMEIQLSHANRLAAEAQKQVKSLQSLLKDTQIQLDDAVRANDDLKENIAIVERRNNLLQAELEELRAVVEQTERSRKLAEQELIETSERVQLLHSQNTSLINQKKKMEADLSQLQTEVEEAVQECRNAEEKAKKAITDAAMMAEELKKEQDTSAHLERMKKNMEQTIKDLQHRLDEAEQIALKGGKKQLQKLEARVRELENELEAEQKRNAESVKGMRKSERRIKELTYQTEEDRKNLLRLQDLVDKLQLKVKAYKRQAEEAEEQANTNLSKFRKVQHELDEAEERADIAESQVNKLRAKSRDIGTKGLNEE
bovine cardiac myofibrils (full-length cardiac myosin ATPase in the native sarcomere), sequence (P85100 whole entry partner): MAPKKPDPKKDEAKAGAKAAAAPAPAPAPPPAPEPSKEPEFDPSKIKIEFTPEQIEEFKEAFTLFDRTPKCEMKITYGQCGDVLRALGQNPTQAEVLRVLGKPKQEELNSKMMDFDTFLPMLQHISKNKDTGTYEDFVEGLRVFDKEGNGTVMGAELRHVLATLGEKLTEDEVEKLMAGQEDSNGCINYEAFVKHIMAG
bovine cardiac myofibrils (full-length cardiac myosin ATPase in the native sarcomere), sequence (Q3SZE5 whole entry partner): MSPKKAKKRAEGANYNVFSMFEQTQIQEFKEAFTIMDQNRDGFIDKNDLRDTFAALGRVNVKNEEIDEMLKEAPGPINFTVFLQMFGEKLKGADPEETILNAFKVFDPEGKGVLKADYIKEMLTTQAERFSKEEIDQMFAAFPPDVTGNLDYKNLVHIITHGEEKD

Row | CDMF75 IC15 | IC50 | Compound
1 | 2.9 µM | 11.9 µM | CCc1nc(-c2ccc3c(c2)CC[C@H]3NC(=O)c2cnn(C3CN(S(C)(=O)=O)C3)c2)no1 [Compound 478, (R)-N-(5-(5-ethyl-1,2,4-oxadiazol-3-yl)-2,3-dihydro-1H-inden-1-yl)-1-(1-(methylsulfonyl)azetidin-3-yl)-1H-pyrazole-4-carboxamide]
2 | 6.5 µM | 29.2 µM | O=C(N[C@@H]1CCc2cc(-c3noc(C4CCC4)n3)ccc21)c1nn[nH]n1 [Compound 505, (R)-N-(5-(5-cyclobutyl-1,2,4-oxadiazol-3-yl)-2,3-dihydro-1H-inden-1-yl)-2H-tetrazole-5-carboxamide]
3 | 27.8 µM | 39.2 µM | CC(CO)c1nc(-c2ccc3c(c2)CC[C@H]3NC(=O)c2nnn(C)n2)no1 (stereo partly drawn) [Compound 518, N-((1R)-5-(5-(1-hydroxypropan-2-yl)-1,2,4-oxadiazol-3-yl)-2,3-dihydro-1H-inden-1-yl)-2-methyl-2H-tetrazole-5-carboxamide]
4 | 0.5 µM | 1.6 µM | CCc1nc(-c2ccc3c(c2)CC[C@H]3NC(=O)c2cncc(C)c2)no1 [Compound 626, (R)-N-(5-(5-ethyl-1,2,4-oxadiazol-3-yl)-2,3-dihydro-1H-inden-1-yl)-5-methylnicotinamide]
5 | 0.9 µM | 3.2 µM | Cc1cc(C(=O)N[C@@H]2COc3cc(-c4noc(C)n4)ccc32)on1 [Compound 346, (S)-3-methyl-N-(6-(5-methyl-1,2,4-oxadiazol-3-yl)-2,3-dihydrobenzofuran-3-yl)isoxazole-5-carboxamide]
6 | 0.6 µM | 2 µM | Cc1nc(-c2ccc3c(c2)OCC3NC(=O)c2ccccc2)no1 (stereo not drawn) [Compound 15, N-(6-(5-methyl-1,2,4-oxadiazol-3-yl)-2,3-dihydrobenzofuran-3-yl)benzamide]
7 | 0.7 µM | 2.8 µM | CCc1nc(-c2ccc3c(c2)CC[C@H]3NC(=O)c2cc(C)on2)no1 [Compound 569, (R)-N-(5-(5-ethyl-1,2,4-oxadiazol-3-yl)-2,3-dihydro-1H-inden-1-yl)-5-methylisoxazole-3-carboxamide]
8 | 0.5 µM | 1.5 µM | CCc1nc(-c2ccc3c(c2)CC[C@H]3NC(=O)c2cc(CO)ccn2)no1 [Compound 652, (R)-N-(5-(5-ethyl-1,2,4-oxadiazol-3-yl)-2,3-dihydro-1H-inden-1-yl)-4-(hydroxymethyl)picolinamide]
9 | 0.8 µM | 3.4 µM | O=C(NC1CCc2cc(-c3noc(C(F)F)n3)ccc21)c1cncs1 (stereo not drawn) [Compound 11, N-(5-(5-(difluoromethyl)-1,2,4-oxadiazol-3-yl)-2,3-dihydro-1H-inden-1-yl)thiazole-5-carboxamide]
10 | 2.1 µM | 12.2 µM | Cc1ccnc(-c2ccc3c(c2)CC[C@H]3NC(=O)c2ccnn2C)n1 [Compound 378, (R)-1-methyl-N-(5-(4-methylpyrimidin-2-yl)-2,3-dihydro-1H-inden-1-yl)-1H-pyrazole-5-carboxamide]
11 | 0.5 µM | 1.8 µM | CCc1nc(-c2ccc3c(c2)CC[C@H]3NC(=O)c2cnn(CCO)c2C)no1 [Compound 572, (R)-N-(5-(5-ethyl-1,2,4-oxadiazol-3-yl)-2,3-dihydro-1H-inden-1-yl)-1-(2-hydroxyethyl)-5-methyl-1H-pyrazole-4-carboxamide]
12 | 1.7 µM | 6.8 µM | CCc1nc(-c2ccc3c(c2)CC[C@H]3NC(=O)N2CC[C@@H](O)C2)no1 [Compound 724, (R)-N-((R)-5-(5-ethyl-1,2,4-oxadiazol-3-yl)-2,3-dihydro-1H-inden-1-yl)-3-hydroxypyrrolidine-1-carboxamide]
13 | 1.4 µM | 5.2 µM | [2H]C([2H])([2H])c1nc(-c2ccc3c(c2)CC[C@H]3NC(=O)c2cnc(C)o2)no1 [Compound 249, (R)-2-methyl-N-(5-(5-(methyl-d3)-1,2,4-oxadiazol-3-yl)-2,3-dihydro-1H-inden-1-yl)oxazole-5-carboxamide]
14 | 0.6 µM | 2.7 µM | COC(=O)N[C@@H]1CCc2cc(-c3noc(C)n3)ccc21 [Compound 303, methyl (R)-(5-(5-methyl-1,2,4-oxadiazol-3-yl)-2,3-dihydro-1H-inden-1-yl)carbamate]

The remaining lines, values behind:

Row | Compound | CDMF75 IC15 | IC50
15 | Cc1nc(-c2ccc3c(c2)CC[C@H]3NC(=O)c2c[nH]nc2C)no1 [Compound 400, (R)-3-methyl-N-(5-(5-methyl-1,2,4-oxadiazol-3-yl)-2,3-dihydro-1H-inden-1-yl)-1H-pyrazole-4-carboxamide] | 0.8 µM | 2.8 µM
16 | Cc1nc(-c2ccc3c(c2)CCC3NC(=O)c2ccccc2)no1 (stereo not drawn) [Compound 2, N-(5-(5-methyl-1,2,4-oxadiazol-3-yl)-2,3-dihydro-1H-inden-1-yl)benzamide] | 0.6 µM | 2 µM
17 | Cc1nc(-c2ccc3c(c2)CCC3NC(=O)c2conc2C)no1 (stereo not drawn) [Compound 89, 3-methyl-N-(5-(5-methyl-1,2,4-oxadiazol-3-yl)-2,3-dihydro-1H-inden-1-yl)isoxazole-4-carboxamide] | 1.0 µM | 3.3 µM
18 | [2H]C([2H])([2H])c1nc(-c2ccc3c(c2)CC[C@H]3NC(=O)c2ocnc2C)no1 [Compound 251, (R)-4-methyl-N-(5-(5-(methyl-d3)-1,2,4-oxadiazol-3-yl)-2,3-dihydro-1H-inden-1-yl)oxazole-5-carboxamide] | 0.5 µM | 1.5 µM
19 | O=C(N[C@@H]1CCc2cc(-c3noc(C(F)F)n3)ccc21)c1ccnc(CO)c1 [Compound 665, (R)-N-(5-(5-(difluoromethyl)-1,2,4-oxadiazol-3-yl)-2,3-dihydro-1H-inden-1-yl)-2-(hydroxymethyl)isonicotinamide] | 0.4 µM | 1.8 µM
20 | O=C(N[C@@H]1CCc2cc(-c3noc(C(F)F)n3)ccc21)C1COC1 [Compound 288, (R)-N-(5-(5-(difluoromethyl)-1,2,4-oxadiazol-3-yl)-2,3-dihydro-1H-inden-1-yl)oxetane-3-carboxamide] | 10.6 µM | > 39.2 µM
21 | Cc1cc(C(=O)N[C@@H]2CCc3cc(-c4cc(C(F)F)no4)ccc32)ccn1 [Compound 171, (R)-N-(5-(3-(difluoromethyl)isoxazol-5-yl)-2,3-dihydro-1H-inden-1-yl)-2-methylisonicotinamide] | 1.7 µM | 6.9 µM
22 | Cc1cc(C(=O)N[C@@H]2CCc3cc(-c4noc(C(C)C)n4)ccc32)ccn1 [Compound 392, (R)-N-(5-(5-isopropyl-1,2,4-oxadiazol-3-yl)-2,3-dihydro-1H-inden-1-yl)-2-methylisonicotinamide] | 0.9 µM | 2.7 µM
23 | COCc1nc(-c2ccc3c(c2)CC[C@H]3NC(=O)c2ocnc2C)no1 [Compound 177, (R)-N-(5-(5-(methoxymethyl)-1,2,4-oxadiazol-3-yl)-2,3-dihydro-1H-inden-1-yl)-4-methyloxazole-5-carboxamide] | 0.5 µM | 1.8 µM
24 | CCc1nc(-c2ccc3c(c2)CC[C@H]3NC(=O)OCC2CC2)no1 [Compound 323, cyclopropylmethyl (R)-(5-(5-ethyl-1,2,4-oxadiazol-3-yl)-2,3-dihydro-1H-inden-1-yl)carbamate] | 0.3 µM | 0.9 µM
